Results: US20150307491A1, “SUBSTITUTED PYRIDOPYRAZINES AS SYK INHIBITORS” (HUTCHISON MEDIPHARMA LIMITED, priority 2012, published 2015)

Key:
Flt3 kinase = target: T1, Flt3 kinase (Homo sapiens, UniProt P36888); assay: Z-lyte kinase assay of Flt-3; format: biochemical; conditions: Z-LYTE Tyr 2 peptide; final concentrations 3 to 0.0014 μM
T1 construct: purchased Invitrogen PV3182
T1 sequence (P36888 564-993 limits assumed): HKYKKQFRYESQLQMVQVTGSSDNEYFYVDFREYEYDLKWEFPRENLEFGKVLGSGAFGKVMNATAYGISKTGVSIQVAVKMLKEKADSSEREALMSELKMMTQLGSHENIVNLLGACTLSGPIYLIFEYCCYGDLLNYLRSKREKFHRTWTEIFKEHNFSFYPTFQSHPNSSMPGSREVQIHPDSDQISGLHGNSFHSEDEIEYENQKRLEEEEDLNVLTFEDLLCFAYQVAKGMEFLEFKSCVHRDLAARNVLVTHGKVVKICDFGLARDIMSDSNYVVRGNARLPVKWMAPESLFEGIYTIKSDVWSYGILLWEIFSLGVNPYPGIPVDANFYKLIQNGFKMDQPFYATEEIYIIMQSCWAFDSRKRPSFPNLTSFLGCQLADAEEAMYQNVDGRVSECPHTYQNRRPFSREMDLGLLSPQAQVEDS
Procedure: Z-lyte kinase assay of Flt-3:
Dilute 5× Kinase Buffer to 1,33× with ddH2O
Serially dilute the test compounds to 4 folds of the concentrations desired, keeping the DMSO concentration at 8%. The final concentrations were 3, 1, 0.33, 0.11, 0.037, 0.012, 0.004, 0.0014 μM, and the final concentration of DMSO was 2%,
Prepare Kinase/Peptide Mixture by diluting the kinase to 0.12 μg/mL and the Z-LYTE™ Tyr 2 peptide to 4 μM in 1.33× Kinase Buffer. Mix gently by pipetting. 4) Phcspho-peptide Solution (PP solution)
Add 0.4 μL of Z-LYTE™ Tyr 2 Phospho-peptide to 99.6 μL of 1.33× Kinase Buffer.
Prepare ATP Solution by diluting the 10 mM of ATP in 1.33× Kinase Buffer to 1.88 mM.
Dilute Development Reagent A with Development Buffer as 1:64.
1) Kinase reaction (10 μL of Volume) • a. Add 2.5 μL of 4× test Cpds to each well except C1, C2, C3 wells
Add 2.5 μL of 8% DMSO to C1, C2, C3 wells • b. Put the 384-plate on ice • c. Add 5 μL of P/K mixture to each test Cpd wells and C1, C2 wells • d. Add 5 μL of PP Solution to C3 well • e. Add 2.5 μL of 1,33× kinase buffer to C1 and C3 wells • f. Add 2.5 μL of 4×ATP Solution to each test Cpd wells and C2 well, respectively.
Shake the plate for 30 Sec and centrifuge (1500 rpm, 1 min) • g. Seal the plate to protect from the light and incubate the plate for 1 hour at RT (25-30° C.) 2) Development reaction • a. Add 5 μL of the Development solution to all wells • b. Shake the plate for 30 Sec and centrifuge (1500 rpm, 1 min) • c. Seal the plate to protect from the light and incubate the plate for 1 hour at RT (25-30° C.) 3) Stop and read • a. Add 5 μL of the Stop reagent to all wells • b. Shake the plate for 30 Sec and centrifuge (1500 rpm, 1 min) • c. Measure the value of Coumarin (Ex400 nm, Em445 nm) and fluorescein (Ex400 nm, Em520 nm), respectively. 4. Data analysis
Emission Ratio (ER) Coumarin Emission (445 nm)/Fluorescein Emission (520 nm)
inhibition ratio (IR)=1−% Photest Cpd/% PhoC2%
IC50 Value: determined with add-in software for Microsoft Excel, XLfit™ (version 2.0) from ID Business Solutions (Guildford: UK)

[1] = target: T2, Recombinant human KDR (VEGFR-2) (Homo sapiens, UniProt P35968); assay: Transcreener kinase assay of VEGFR-2 (KDR); format: biochemical; conditions: Poly E4Y substrate
T2 construct: purchased Invitrogen PV3660
T2 sequence (P35968 789-1356 limits assumed): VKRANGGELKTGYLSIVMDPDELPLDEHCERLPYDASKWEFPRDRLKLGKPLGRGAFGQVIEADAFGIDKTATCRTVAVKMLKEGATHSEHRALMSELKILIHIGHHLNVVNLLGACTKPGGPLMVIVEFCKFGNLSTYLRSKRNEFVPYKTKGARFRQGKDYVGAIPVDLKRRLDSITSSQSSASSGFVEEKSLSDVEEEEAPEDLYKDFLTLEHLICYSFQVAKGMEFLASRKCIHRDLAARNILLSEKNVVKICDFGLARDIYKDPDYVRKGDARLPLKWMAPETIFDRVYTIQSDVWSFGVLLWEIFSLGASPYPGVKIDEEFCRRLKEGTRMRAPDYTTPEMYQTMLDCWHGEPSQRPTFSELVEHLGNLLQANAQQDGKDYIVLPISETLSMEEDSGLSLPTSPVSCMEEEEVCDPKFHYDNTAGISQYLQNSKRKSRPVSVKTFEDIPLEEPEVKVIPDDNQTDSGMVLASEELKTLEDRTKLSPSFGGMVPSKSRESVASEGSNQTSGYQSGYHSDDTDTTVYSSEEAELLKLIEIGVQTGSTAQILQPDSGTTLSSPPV
Procedure: Transcreener kinase assay of VEGFR-2 (KDR)
1. Solution preparation • 1) Transcreenen™ KINASE Assy kit: Bellbrook Labs, 3003-10 K; • 2) Recombinant human KDR: Invitrogen, PV3660; • 3) Poly E4Y (substrate): Sigma, P0275; 5 mg/mL, dissolved in MilliQ water; • 4) Assay buffer: 67 mM HEPES, 0.013% Triton X-100, 27 mM MgCl2, 0.67 mM MnCl2 1.25 mM DTT, PH 7.4; • 5) 10 mM ATP: Invitrogen, PV3227; • 6) 500 mM EDTA: Invitrogen, 15575-038; • 7) 96 well black Greiner plate: Greiner, 675076.
2. Prepare solution • 1) Dilute the compound to 5 folds of final concentrations, keeping the DMSO concentration at 5%. The final concentrations are 1, 0.33, 0.11, 0.037, 0.012, 0.004, 0.0014, 0.0005 μM; and the final concentration of DMSO is 1%. • 2) Prepare Enzyme/Substrate stock, Recombinant human KDR and Poly E4Y are both diluted in assay buffer. The final concentration is KDR (0.3 ng/μL), Poly E4Y (62.5 ng/μL). The mixture is keeping on ice surface before use; • 3) Prepare ATP Diluents, 10 mM ATP is diluted in assay buffer, the final concentration is 25 μM; • 4) Prepare ADP Diluents: diluted ADP (500 μM) in assay buffer, the final concentration is 25 μM; • 5) Prepare ATP standard curve stock as following:
3. Enzymatic reaction • 1) Add 5 μL of compound or control. (positive control, 5 μL of 5% DMSO; negative control, 5 μL of 500 mM EDTA); • 2) Add 10 μL of Enzyme/Substrate stock; • 3) Add 10 μL of ATP Diluents to begin the enzyme reaction and mix on plate shaker; • 4) Add 5 μL 5% DMSO, 10 μL of assay buffer and 10 μL of ATP standard curve stock into standard curve wells; • 5) Incubate at 28° C. for 45 min, keeping plate in gently shaking.
4. Stop reaction and detect ADP • 1) Prepare Detection Mix: diluted ADP Alexa633 tracer (1:100), ADP antibody (1:158), and stop & detect buffer (1:10) by MilliQ water; • 2) Prepare Tracer Only control: diluted ADP Alexa633 tracer (1:100) and stop & detect buffer (1:10) by MilliQ water; • 3) Prepare No Tracer control: diluted stop & detect buffer (1:10) by MilliQ water; • 4) Add 25 μL of detection mix, Tracer Only control and No Tracer control into corresponding wells, respectively; • 5) Incubate at 28° C. for 1 h, keeping plate in gently shaking; • 6) Measure florescence polarization (FP) on TECAN F500. Excitation wavelength: 610 nm, Emission wavelength: 670 nm.
Wherein: • 1) Compound well [ADP] represents the ADP concentration of compound well. • 2) Positive control well [ADP] represents the ADP concentration of 5% DMSO well • 3) Conversion of mP value to ADP concentration based on the formula which determined by standard curve.
IC50: calculated using XL-Fit 2.0 software.

RBL-2H3 cells = assay: IgE-induced Beta-hexosaminidase secretion in RBL-2H3 cells; format: cell-based; conditions: Rattus norvegicus; RBL-2H3 cells sensitized with SPE-7, stimulated with DNP-BSA
Procedure: For the determination of IgE-induced Beta-hexosaminidase secretion, RBL-2H3 cells (SIBS) are seeded in 96 well plates at 4×10^4 cells per well and incubated in MEM media with 15% FBS and Glutamine ([…]) for 4 hours and sensitized with 0.5 ug/ml of SPE-7 overnight. Cells are washed 3 times with Tyrode's buffer and incubated in the presence or absence of various concentrations of the testing compound for 20 min at 37° C., 5% CO2. Cells are stimulated by adding 10 μL of DNP-BSA solution (150 ng/mL) to each well and incubating for 45 minutes at 37° C., 5% CO2. Then, 45 μL of the supernatant is taken and incubated with 100 μL of 1 mM 4-Nitrophenyl N-acetyl-β-D-glucosaminide (Sigma, Cat. No. N9376), which is diluted in 0.05 M citrate buffer (pH 4.5), for 1.5 hr at 37° C. The reactions are quenched by adding 185 μL of 0.05 M sodium carbonate buffer (pH 10.0). Plates are read at 405 nm on Multiskan (MK 3).

Syk kinase = Syk kinase (Homo sapiens, UniProt P43405); assay: SYK enzymatic assay; format: biochemical; conditions: Tyr 2 Peptide, 8 concentrations 1 μM down to 0.0003 μM
Procedure: Syk kinase assay are performed in vitro using Kit-Tyr 2 Peptide (Invitrogen, Cat. No. PV3191) and in a 384-well assay plate. […] The 384-well assay plate (Corning, Cat. No. 3575) is mixed and incubated at room temperature for 1 hour. 10 μL of the Development Solution (prepared by diluting Development Reagent A (Cat. No. PV3297) to 1/32 with Development Buffer (Cat. No. PV3127)) is then added to each well, mixed and incubated at room temperature for another 1 hour. The reactions are then stopped by adding 10 μL of the Stop Reagent (Invitrogen, Cat. No. PV3094), and the plate is read with Wallac 1420 VICTOR^3 Multilabel Counter (PerkinElmer™) at 445 nm and 520 nm fluorescence. All compounds are tested at 8 concentrations (1 μM down to 0.0003 μM) using a 1:3 serial dilution scheme.

| Structure (SMILES) | IC50 (Flt3 kinase) [nM] | IC50 [1] [nM] | IC50 (RBL-2H3 cells) [nM] | IC50 (Syk kinase) [nM] |
| --- | --- | --- | --- | --- |
| CN(C)c1ccc(-c2cc3nccnc3c(OC[C@@H]3CN(S(C)(=O)=O)CCO3)n2)cc1Cl [Compound 108] | 2420 | > 3000 | 1 to 100 | – |
| CC(C)S(=O)(=O)N1CCO[C@H](COc2nc(-c3ccc(N(C)C)cc3)cc3nccnc23)C1 [Compound 89] | – | – | 100 to 1000 | 1 to 100 |
| CN(C)c1ccc(-c2cc3nccnc3c(OC[C@@H]3CN(C(=O)C(F)F)CCO3)n2)cc1 [Compound 100] | > 3000 | – | 1 to 100 | – |
| CN(C)c1ccc(-c2cc3nccnc3c(OC[C@@H]3CN(C(=O)CC4CC4)CCO3)n2)cc1 [Compound 70] | – | – | 100 to 1000 | 1 to 100 |
| CS(=O)(=O)N1CCO[C@H](COc2nc(-c3ccc4c(c3)OCCO4)cc3nccnc23)C1 [Compound 109] | – | – | 100 to 1000 | 1 to 100 |
| CN(C)c1ccc(-c2cc3nccnc3c(OC[C@@H]3CN(S(C)(=O)=O)CCO3)n2)cc1 [Compound 94] | 2010 | – | 1 to 100 | – |
| O=C(C(F)F)N1CCO[C@H](COc2nc(-c3ccc(N4CCOCC4)c(F)c3)cc3nccnc23)C1 [Compound 15] | – | – | 100 to 1000 | 1 to 100 |
| CS(=O)(=O)N1CCN(c2ccc(-c3cc4nccnc4c(OC[C@@H]4CN(S(C)(=O)=O)CCO4)n3)cc2)CC1 [Compound 26] | – | 1600 | 100 to 1000 | – |
| CN(C)c1ccc(-c2cc3nccnc3c(OC[C@@H]3CN(S(C)(=O)=O)CCO3)n2)cc1F [Compound 53] | – | 2960 | 1 to 100 | – |
| CN(C)c1ccc(-c2cc3nccnc3c(OC[C@@H]3CN(C(=O)C(F)F)CCO3)n2)cc1F [Compound 32] | > 3000 | – | 1 to 100 | – |
| CN(C)c1ccc(-c2cc3nccnc3c(OC[C@@H]3CN(C(=O)[C@H]4CCOC4)CCO3)n2)cc1 [Compound 95] | 2820 | – | 1 to 100 | – |
| O=C(C(F)F)N1CCO[C@H](COc2nc(-c3ccc(C4CCOCC4)cc3)cc3nccnc23)C1 [Compound 9] | – | – | 100 to 1000 | 1 to 100 |
| COc1ccc(-c2cc3nccnc3c(OC[C@@H]3CN(S(C)(=O)=O)CCO3)n2)cc1OC [Compound 43] | 1600 | > 3000 | 1 to 100 | – |
| CC(=O)N1CCC(c2ccc(-c3cc4nccnc4c(OC[C@@H]4CN(S(C)(=O)=O)CCO4)n3)cc2)CC1 [Compound 33] | – | 1330 | 1 to 100 | – |
| CN(C)c1ccc(-c2cc3nccnc3c(OC[C@@H]3CN(S(=O)(=O)C4CC4)CCO3)n2)cc1 [Compound 90] | > 3000 | – | 1 to 100 | – |
| CS(=O)(=O)N1CCC(c2ccc(-c3cc4nccnc4c(OC[C@@H]4CN(S(C)(=O)=O)CCO4)n3)cc2)CC1 [Compound 57, (S)-4-(methylsulfonyl)-2-((7-(4-(1-(methylsulfonyl)piperidin-4-yl)phenyl)pyrido[4,3,-b]pyrazin-5-yloxy)methyl)morpholine] | 1640 | 1560 | 1 to 100 | – |
| CC(=O)N1CCO[C@H](COc2nc(-c3ccc(N(C)C)cc3)cc3nccnc23)C1 [Compound 67] | 2520 | – | 1 to 100 | – |
| CN(C)c1ccc(-c2cc3nccnc3c(OC[C@@H]3CN(C(=O)C4CC4)CCO3)n2)cc1 [Compound 69] | > 3000 | – | 1 to 100 | – |
| CN(C)c1ccc(-c2cc3nccnc3c(OC[C@@H]3CN(C(=O)[C@H]4CC[C@H](O)CC4)CCO3)n2)cc1 [Compound 75] | – | – | – | 1 to 100 |
